In patent publication US7271239B2, “D-isomers of antimicrobial peptide” (The Research Foundation of State University of New York, priority 2004, dated 2007):
Where two headings read alike, the source gives them in different places.

Key:
[1] = system: HOK-16B cells; experiment: MTS cell viability assay; assay type: cell-based, human
Method: FIG. 6. Effect of peptides on viability of (A) HOK-16B cells and (B) KB cells. The toxic effect of the compounds on the cells was determined by calorimetric assay using a CellTiter 96 AQueous One Solution cell proliferation assay (MTS) kit, as described in the text. Briefly, the cells were grown to about 80% confluence, harvested, washed, resuspended in KGM, and dispensed into a 96-well microtiter plate. They were then exposed to different concentrations of peptides or amphotericin B at 37° C. and 5% CO2 for 1.5 h. MTS agent was then added to each well, and the cells were further incubated for 4 h. Absorbance at 490 nm was then measured using a microplate reader. MTS reduction is an indication of cell viability. The viability is expressed as relative absorbance (percentage of no-agent control). Data represent the average and standard deviation of results from two independent experiments.
Cell culture. The HOK-16B cell line (originated from primary normal human keratinocytes) was kindly provided by No-Hee Park, UCLA School of Dentistry. The KB cell line was obtained from the American Type Culture Collection (CLL-17). […]
MTS cell viability assay. The toxic effect of the compounds on the cells was determined by calorimetric assay using a CellTiter 96 AQueous One Solution cell proliferation assay (MTS) kit (Promega, Wis.). […] Absorbance at 490 nm was then measured using a microplate reader. […]

[2] = system: C. albicans strain DIS; assay type: in vivo, mice ICR strain; conditions: for Log10 cfu/ml (Mean + S.D.), Initial infection: before treatment (baseline)
Method: A previously described protocol was adopted (14). Mice were immunosuppressed with two subcutaneous injections of prednisolone at a dose of 100 mg/kg body weight 1 day prior to and 3 days after the infection with C. albicans. Tetracycline hydrochloride in drinking water at a concentration of 0.83 mg/ml was given to mice beginning 1 day before infection. Mice were anesthetized by intramuscular injection with 60 μl of 2 mg/ml chlorpromazine chloride, using a dose of 10 mg/kg body weight of mice. While under anesthesia, a small cotton ball soaked in 0.1 ml aliquot of C. albicans cell suspension (2.5×10^6 cells) was used to swab the entire oral cavity of the anesthetized mice.
Visual evaluation was done by carefully extending the tongue of randomly picked mice using blunt-end forceps, while the mice were under isoflurane sedation. Presence of thick, white curd-like patches indicated candidal infection. At day 3 post-infection, all animals were examined for evidence oral candidal infection by microbiological evaluation. The entire oral cavity of anesthetized mice was swabbed using a sterile calcium alginate disposable swab (Fisher Scientific), dampened with sterile PBS. Cells were then released from the swab into 1 ml PBS. Serial 10-fold dilutions were plated on SDA plates supplemented with streptomycin (30 μg/ml). Plates were incubated for 24 h at 37° C. and yeast cell count expressed as log10 of cfu/ml.
Tongues from sacrificed animals were used for histological studies. They were fixed in 10% formalin and embedded in paraffin. Serial five-μm sections were cut from the paraffin block and stained with periodic acid-Schiff (PAS) reagent for detection of C. albicans.
Mice were randomly divided into various treatment groups with 8 mice per group. Antifungal agents were employed on an equimolar basis, and included amphotericin B (1.75%), clotrimazole (0.66%), MUC7 12-mer (RKSYKCLHKRCR—SEQ ID NO:1) (L; 3%), MUC7 12-mer (D; 3%), MUC7 12-mer (D; 3%) containing Na2EDTA (1 mM), MUC7 12-mer (L; 3%) containing protease inhibitor cocktail (PIC) (1%), and Hsn5 12-mer (AKRHHGYKRKFH—SEQ ID NO:2) (3%). They were all emulsified in Pluronic F127, (20% lipoil), a polymer of polyoxyethylene and polyoxypropylene (non-ionic surfactant). Animals were anesthetized using isoflurane; while sedated, about 30 to 40 μl of the antifungal emulsion was applied on the tongue and spread throughout oral cavity. The treated mice were under sedation for additional 5 min under isoflurane. Animals were not given access to food and water for 1 h following the application.
Fungal burden was re-evaluated quantitatively after 3 and 6 days of treatment, using the same technique as the one used for initial evaluation. Randomly picked mice from each group was subjected to histopathological evaluation, after 6 days of treatment. Blood from randomly sacrificed mice from each treatment group was analyzed for any changes in the serum liver (AST, ALT, ALP etc.) and kidney enzymes (BUN, glucose, creatinine etc) levels.
Statistical analysis was performed using a significance level set at 0.05 (α) and a significant group size (n=8). Initial infection and antifungal treatment efficacy were determined using analysis of variance (ANOVA), expressed as log10 cfu, and Scheffe's multiple comparison test was used to determine the differences between various treatment groups.

[3] = Experimental study I, topical oral application

Structure (SMILES): C[C@@H]1[C@H](O)[C@@H](C)/C=C/C=C/C=C/C=C/C=C/C=C/C=C/[C@H](O[C@@H]2O[C@H](C)[C@@H](O)[C@H](N)[C@@H]2O)C[C@@H]2O[C@](O)(C[C@@H](O)C[C@@H](O)[C@H](O)CC[C@@H](O)C[C@@H](O)CC(=O)O[C@H]1C)C[C@H](O)[C@H]2C(=O)O [Amphotericin B]
- IC50 [1]: 100 µM
- Log10 cfu/ml (Mean + S.D.), Initial infection ([2]; Experimental study I, day 3 post-infection): 4.52 ± 0.15 Log10 cfu/ml
- Log10 cfu/ml (Mean + S.D.), 3-days treatment [2, 3]: 1.79 ± 1.16 Log10 cfu/ml
- Log10 cfu/ml (Mean + S.D.), 6-days treatment [2, 3]: 0.75 ± 1.04 Log10 cfu/ml
- Log10 cfu/ml (Mean + S.D.), 3-days treatment ([2]; Experimental study II): 1.23 ± 1.44 Log10 cfu/ml
- Log10 cfu/ml (Mean + S.D.), Initial infection ([2]; Experimental study II): 4.26 ± 0.54 Log10 cfu/ml
- histopathological finding in tongue sections (C. albicans, PAS staining) ([2]; end of treatment): healthy tissue and absence of visible microorganisms
